In US12398155B2, “Thienopyridinone compounds” (Janssen Pharmaceutica NV, priority 2019, dated 2025):
Counter-ions that a name gives are not always drawn.

Assays:
[1] = target: T1, NIH/3T3 cells overexpressing FGFR3 WT-TACC3 fusion protein (Homo sapiens, UniProt P22607); experiment: NIH/3T3 FGFR3 WT-TACC3 cell proliferation assay; assay type: cell-based; conditions: 72-hr incubation, CellTiter Glo; read-out: NIH/3T3 FGFR3 WT-TACC3 CTG
T1 construct: NIH/3T3 FGFR3 WT-TACC3 CTG; other: 72-hr incubation, CellTiter Glo; fused on or other part: C-terminal part of TACC3 (coiled-coil) fused behind the FGFR3 kinase domain; Q9Y6A5 (Transforming acidic coiled-coil-containing protein 3)
T1 sequence (P22607 whole entry, change not shown, the tested form may be a part): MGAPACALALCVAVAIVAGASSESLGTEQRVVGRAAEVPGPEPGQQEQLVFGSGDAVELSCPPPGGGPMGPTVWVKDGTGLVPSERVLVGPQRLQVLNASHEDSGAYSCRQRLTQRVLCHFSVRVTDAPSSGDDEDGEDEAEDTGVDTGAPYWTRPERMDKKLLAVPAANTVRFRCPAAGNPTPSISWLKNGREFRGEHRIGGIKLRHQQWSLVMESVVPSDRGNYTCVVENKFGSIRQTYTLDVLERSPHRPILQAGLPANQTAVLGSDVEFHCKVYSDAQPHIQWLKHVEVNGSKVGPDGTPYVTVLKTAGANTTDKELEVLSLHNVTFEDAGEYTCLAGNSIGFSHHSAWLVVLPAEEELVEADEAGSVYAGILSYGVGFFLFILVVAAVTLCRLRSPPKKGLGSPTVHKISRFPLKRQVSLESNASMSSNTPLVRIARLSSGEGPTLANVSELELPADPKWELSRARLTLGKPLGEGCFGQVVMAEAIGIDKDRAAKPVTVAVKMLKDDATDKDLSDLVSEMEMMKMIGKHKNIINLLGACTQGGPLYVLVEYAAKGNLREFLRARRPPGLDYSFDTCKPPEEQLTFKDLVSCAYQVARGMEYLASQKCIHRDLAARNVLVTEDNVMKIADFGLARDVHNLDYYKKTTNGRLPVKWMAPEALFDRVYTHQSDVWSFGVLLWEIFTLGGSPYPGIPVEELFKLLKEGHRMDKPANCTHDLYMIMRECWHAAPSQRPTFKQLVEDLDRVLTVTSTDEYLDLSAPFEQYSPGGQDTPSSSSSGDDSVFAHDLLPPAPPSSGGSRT
Protocol: NIH/3T3 FGFR3 WT-TACC3 Cell Proliferation Assay
(§1) In day 1, 90 μL of cell suspension (NIH/3T3 cells overexpressing FGFR3 WT-TACC3 fusion protein) (total 30,000 cells per well in growth medium (DMEM containing 1% Glutamax, 10% FBS and 1% Pen/Strep)) was seeded in a 96-well plate and then incubated overnight at 37° C. and 5% CO2. In day 2, 10 μL of growth medium containing 10-fold stock solution of testing compound was added into cell cultures (9 dose points with 4× serial dilution, starting with 10 μM, 0.1% DMSO final). After 72-hr incubation at 37° C. and 5% CO2, in day 5 a volume of 50 μL CellTiter Glo (CTG) reagent was added into cell-containing 96-well plate and the plate was incubated at room temperature for 10 minutes before RLUs (relative light unit) were measured on a microplate reader with luminescence detection module. The RLU value was normalized to survival % and concentration-response curve was plotted using Prism to calculate IC50 (M), pIC50 (−log IC50) and HillSlope value.

[2] = target: T2, human FGFR3 wild type enzyme (cytoplasmic domain) (Homo sapiens, UniProt P22607); experiment: FGFR3 wild type mobility shift assay (enzymatic assay); assay type: biochemical; conditions: 75 μM ATP, 50 minutes at 30° C.; read-out: FGFR3 wild type Caliper
T2 construct: human FGFR3 wild type enzyme (cytoplasmic domain, from Cama Biosciences); purchased Cama Biosciences (so in the source)
T2 sequence (P22607 397-806 limits assumed): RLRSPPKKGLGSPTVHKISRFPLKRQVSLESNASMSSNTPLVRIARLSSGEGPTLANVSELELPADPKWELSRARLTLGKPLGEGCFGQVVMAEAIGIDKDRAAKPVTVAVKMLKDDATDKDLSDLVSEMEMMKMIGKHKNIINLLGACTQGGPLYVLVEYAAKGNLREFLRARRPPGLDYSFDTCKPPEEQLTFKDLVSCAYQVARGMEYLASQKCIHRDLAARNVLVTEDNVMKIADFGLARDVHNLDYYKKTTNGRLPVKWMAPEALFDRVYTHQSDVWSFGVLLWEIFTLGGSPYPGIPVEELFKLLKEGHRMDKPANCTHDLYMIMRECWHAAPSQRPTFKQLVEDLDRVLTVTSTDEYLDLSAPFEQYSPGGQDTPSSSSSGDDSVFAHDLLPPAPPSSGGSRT
Protocol: FGFR3 Wild Type Mobility Shift Assay (Enzymatic Assay)
(§2) In a final reaction volume of 25 μL, 0.04 ng/μL human FGFR3 wild type enzyme (cytoplasmic domain, from Cama Biosciences) was incubated with 75 μM ATP, 1 μM FL-peptide 30 substrate and 250 nL of testing compound (1% DMSO final) in assay buffer (100 mM HEPES pH 7.4, 10 mM MgCl2, 0.003% Brij35, 1 mM DTT). After incubation for 50 minutes at 30° C. the reaction was stopped with 10 μL of 0.5M EDTA pH 8.0, and then 25 μL of reaction mixture was transferred to reading plate and measured on Caliper EZ reader II. The substrate-product conversion rate was used as raw data for normalization and concentration-response curve (10 dose points with 4× serial dilution, starting with 10 μM) was plotted using Prism to calculate IC50 (M), pIC50 (−log IC50) and HillSlope value.

[3] = tested on: NIH/3T3 cells transfected with control vector; experiment: NIH/3T3 mock cell proliferation assay (counter assay, general toxicity); assay type: cell-based; conditions: Mus musculus, NIH3T3; 72-hr incubation, CellTiter Glo; read-out: NIH/3T3 MOCK CTG
Protocol: NIH/3T3 Mock Cell Proliferation Assay
as §1, with “cells transfected with the same control vector as in the above two proliferation assays)” for “cells overexpressing FGFR3 WT-TACC3 fusion protein)”, “with 3×” for “with 4×”, “with 30” for “with 10”, “μM, 0.3%” for “μM, 0.1%”

[4] = target: T3, NIH/3T3 cells overexpressing FGFR3 V555M-TACC3 fusion protein (Homo sapiens, UniProt P22607, V555M, cells depend on it); experiment: NIH/3T3 FGFR3 V555M-TACC3 cell proliferation assay; assay type: cell-based; conditions: 72-hr incubation, CellTiter Glo; read-out: NIH/3T3 FGFR3 V555M-TACC3 CTG
T3 construct: NIH/3T3 FGFR3 V555M-TACC3 CTG; other: 72-hr incubation, CellTiter Glo; fused on or other part: C-terminal part of TACC3 (coiled-coil) fused behind the FGFR3 kinase domain; Q9Y6A5 (Transforming acidic coiled-coil-containing protein 3)
T3 sequence (P22607 whole entry V555M, the tested form may be a part): as the sequence (P22607 whole entry, change not shown, the tested form may be a part) above, with V555M counted along it
Protocol: NIH/3T3 FGFR3 V555M-TACC3 Cell Proliferation Assay
as §1, with “V555M-TACC3” for “WT-TACC3”

[5] = target: T4, human FGFR3 V555M enzyme (cytoplasmic domain carrying V555M mutation) (Homo sapiens, UniProt P22607, V555M); experiment: FGFR3 V555M mobility shift assay (enzymatic assay); assay type: biochemical; conditions: 30 μM ATP, 45 minutes at 30° C.; read-out: FGFR3 V555M Caliper
T4 construct: cytoplasmic domain carrying V555M mutation, from Cama Biosciences; purchased Cama Biosciences (so in the source)
T4 sequence (P22607 397-806 V555M limits assumed): as the sequence (P22607 397-806 limits assumed) above, with V159M counted along it
Protocol: FGFR3 V555M Mobility Shift Assay (Enzymatic Assay)
as §2, with “FGFR3 V555M” for “FGFR3 wild type”, “(cytoplasmic domain carrying V555M mutation,” for “(cytoplasmic domain,”, “with 30” for “with 75”, “for 45” for “for 50”

Compound | GI50 [1] [nM] | IC50 [2] [nM] | GI50 [4] [nM] | IC50 [5] [nM] | IC50 [3] [nM]
COCC(Nc1c(-c2nc3cnc(N4C[C@@H](C)O[C@@H](C)C4)cc3[nH]2)c(=O)[nH]c2ccsc12)c1ncccn1 (single isomer, unassigned) [Compound 7, (S*)-6-(6-(cis-2,6-dimethylmorpholino)-1H-imidazo[4,5-c]pyridin-2-yl)-7-((2-methoxy-1-(pyrimidin-2-yl)ethyl)amino)thieno[3,2-b]pyridin-5(4H)-one] | 486 | 35.5 | 284 | 2.34 | 3050
COCC(Nc1c(-c2nc3cnc(N4C[C@@H](C)O[C@@H](C)C4)cc3[nH]2)c(=O)[nH]c2ccsc12)c1ncccn1 (single isomer, unassigned) [Compound 8, (R*)-6-(6-(cis-2,6-dimethylmorpholino)-1H-imidazo[4,5-c]pyridin-2-yl)-7-((2-methoxy-1-(pyrimidin-2-yl)ethyl)amino)thieno[3,2-b]pyridin-5(4H)-one] | – | 28.6 | – | 9.42 | –
COC[C@@H](Nc1c(-c2nc3ccc(N4C[C@@H](C)O[C@@H](C)C4)nc3[nH]2)c(=O)[nH]c2ccsc12)c1ncccn1 (single isomer, unassigned) [Compound 10, (S*)-6-(5-(cis-2,6-dimethylmorpholino)-3H-imidazo[4,5-b]pyridin-2-yl)-7-(((S*)-2-methoxy-1-(pyrimidin-2-yl)ethyl)amino)thieno[3,2-b]pyridin-5(4H)-one] | – | 290 | – | 119 | –

Stronger by IC50 [2], values ahead:

GI50 [1] [nM] | IC50 [2] [nM] | GI50 [4] [nM] | IC50 [5] [nM] | Compound | IC50 [3] [nM]
– | 21.2 | – | 2.74 | C[C@@H](Nc1c(-c2nc3cnc(N4CCOCC4)cc3[nH]2)c(=O)[nH]c2ccsc12)c1ncccn1 [Compound 3, (R)-6-(6-Morpholino-1H-imidazo[4,5-c]pyridin-2-yl)-7-((1-(pyrimidin-2-yl)ethyl)amino)-thieno[3,2-b]pyridin-5(4H)-one] | –
101 | 8.73 | 91.1 | 0.93 | COC[C@H](Nc1c(-c2nc3ccc(N4C[C@@H](C)O[C@@H](C)C4)nc3[nH]2)c(=O)[nH]c2ccsc12)c1ncccn1 (single isomer, unassigned) [Compound 11, (R*)-6-(5-(cis-2,6-dimethylmorpholino)-3H-imidazo[4,5-b]pyridin-2-yl)-7-(((R*)-2-methoxy-1-(pyrimidin-2-yl)ethyl)amino)thieno[3,2-b]pyridin-5(4H)-one] | 3200
3.82 | 0.24 | 5.02 | 0.33 | CC(C)[C@H](Nc1c(-c2nc3cnc(N4CCN(C)CC4)cc3[nH]2)c(=O)[nH]c2ccsc12)c1ncccn1 (single isomer, unassigned) [Compound 12, (S*)-7-((2-methyl-1-(pyrimidin-2-yl)propyl)amino)-6-(6-(4-methylpiperazin-1-yl)-1H-imidazo[4,5-c]pyridin-2-yl)thieno[3,2-b]pyridin-5(4H)-one 0.6 formate] | 482
2.1 | 0.14 | 4.64 | 0.13 | C[C@H](Nc1c(-c2nc3cnc(N4CCN(C)CC4)cc3[nH]2)c(=O)[nH]c2ccsc12)c1ncccn1 [Compound 5, (S)-6-(6-(4-methylpiperazin-1-yl)-1H-imidazo[4,5-c]pyridin-2-yl)-7-((1-(pyrimidin-2-yl)-ethyl)amino)thieno[3,2-b]pyridin-5(4H)-one] | 571
